Reference: patent publication US8580965B2, “Substituted sulfonamide compounds” (Gruenenthal GmbH, priority 2006, dated 2013)

Legend:
[1] = biological target: T1, human B1R receptor (bradykinin 1 receptor) (Homo sapiens, UniProt P46663); assay: FLIPR Ca2+ assay (Fluo-4) on CHO K1 cells stably transfected with the human B1R gene; % activation and % inhibition at 10 μM; format: cell-based; details: CHO K1 hB1R cells, Ca2+ inflow after 0.5 nM Lys-Des-Arg9-bradykinin; for inhibition at 10 µM: CHO-K1, test substance 10 μM, read-out: B1R antagonism, human [10 μM] % inhibition
T1 construct: host or cells: CHO K1 cells (hB1R cells)
T1 sequence (P46663 1-353): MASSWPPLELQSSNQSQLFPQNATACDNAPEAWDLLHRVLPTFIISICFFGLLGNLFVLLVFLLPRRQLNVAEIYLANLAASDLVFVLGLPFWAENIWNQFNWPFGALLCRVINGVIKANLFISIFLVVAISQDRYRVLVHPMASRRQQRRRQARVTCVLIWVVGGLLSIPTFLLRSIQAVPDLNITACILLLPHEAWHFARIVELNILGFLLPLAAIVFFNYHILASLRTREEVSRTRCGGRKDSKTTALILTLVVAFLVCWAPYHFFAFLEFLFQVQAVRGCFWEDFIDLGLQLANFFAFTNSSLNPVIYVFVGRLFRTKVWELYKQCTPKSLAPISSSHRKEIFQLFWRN
Outline: (§1)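 Fluo-4 Ca2+ flux on FLIPR in stable hB1R or rB1R CHO K1 lines, two additions. Agonism: 10 µM compound versus 0.5 nM Lys-Des-Arg9-BK (human) or 100 nM Des-Arg9-BK (rat); antagonism: same agonists applied 10 min later, suppression expressed against maximum achievable inhibition.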

[2] = biological target: T2, B1R receptor of the rat (bradykinin 1 receptor) (Rattus norvegicus, UniProt P97583); assay: FLIPR Ca2+ assay (Fluo-4) on CHO K1 cells stably transfected with the B1R gene of the rat; % activation and % inhibition at 10 μM; format: cell-based; details: CHO K1 rB1R cells, Ca2+ inflow after 100 nM Des-Arg9-bradykinin; for inhibition at 10 µM: CHO-K1, test substance 10 μM, read-out: B1R antagonism, rat [10 μM] % inhibition
T2 construct: host or cells: CHO K1 cells (rB1R cells)
T2 sequence (P97583 1-337): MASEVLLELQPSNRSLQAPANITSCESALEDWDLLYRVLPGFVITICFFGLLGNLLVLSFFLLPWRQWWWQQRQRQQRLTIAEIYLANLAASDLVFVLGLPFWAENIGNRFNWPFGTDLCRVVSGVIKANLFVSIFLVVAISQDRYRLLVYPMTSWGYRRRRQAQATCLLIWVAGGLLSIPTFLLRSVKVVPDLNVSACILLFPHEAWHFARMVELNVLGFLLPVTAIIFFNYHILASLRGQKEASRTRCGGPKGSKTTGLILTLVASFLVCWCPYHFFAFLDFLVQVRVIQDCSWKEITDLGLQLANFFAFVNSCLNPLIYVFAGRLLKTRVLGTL
Outline: as §1

inhibition at 10 µM [1] [%] | inhibition at 10 µM [2] [%] | B1R antagonism, human [10 μM] % inhibition ([1]; test substance 10 μM) [%] | B1R antagonism, rat [10 μM] % inhibition ([2]; test substance 10 μM) [%] | SMILES
105 | 100 | – | – | COc1cc(C)c(S(=O)(=O)N(CCOCC(=O)N2CCC(O)(c3cccc(C(F)(F)F)c3)CC2)CC(C)C)c(C)c1C [Example 212, N-(2-(2-(4-hydroxy-4-(3-(trifluoromethyl)phenyl)piperidin-1-yl)-2-oxoethoxy)ethyl)-N-isobutyl-4-methoxy-2,3,6-trimethylphenylsulfonamide]
– | – | 103.55 | 101.25 | COc1cc(C)c(S(=O)(=O)N2CCCC2COCC(=O)N2CCC(O)(c3ccc(Cl)c(C(F)(F)F)c3)CC2)c(C)c1 (centres unmarked) [Example 213, 1-(4-(4-chloro-3-(trifluormethyl)phenyl)-4-hydroxypiperidin-1-yl)-2-((1-(4-methoxy-2,6-dimethylphenylsulfonyl)pyrrolidin-2-yl)methoxy)ethanone]
97.9 | 101 | – | – | COc1cc(C)c(S(=O)(=O)N2CCCC2COCC(=O)N2CCC(O)(c3ccc(Br)cc3)CC2)c(C)c1 (centres unmarked) [Example 214, 1-(4-(4-bromophenyl)-4-hydroxypiperidin-1-yl)-2-((1-(4-methoxy-2,6-dimethylphenylsulfonyl)pyrrolidin-2-yl)methoxy)ethanone]
104 | 102 | – | – | COc1cc(C)c(S(=O)(=O)N2CCCC2COCC(=O)N2CCC(O)(c3ccccc3)CC2)c(C)c1 (centres unmarked) [Example 215, 1-(4-hydroxy-4-phenylpiperidin-1-yl)-2-((1-(4-methoxy-2,6-dimethylphenylsulfonyl)pyrrolidin-2-yl)methoxy)ethanone]
102 | 100 | – | – | COc1cc(C)c(S(=O)(=O)N2CCCC2COCC(=O)N2CCC(O)(Cc3ccccc3)CC2)c(C)c1 (centres unmarked) [Example 216, 1-(4-benzyl-4-hydroxypiperidin-1-yl)-2-((1-(4-methoxy-2,6-dimethylphenylsulfonyl)pyrrolidin-2-yl)methoxy)ethanone]
105 | 99.9 | – | – | COc1cc(C)c(S(=O)(=O)N2CCCC2COCC(=O)N2CCC(O)(c3cccc(C(F)(F)F)c3)CC2)c(C)c1 (centres unmarked) [Example 217, 1-(4-hydroxy-4-(3-(trifluoromethyl)phenyl)piperidin-1-yl)-2-((1-(4-methoxy-2,6-dimethylphenylsulfonyl)pyrrolidin-2-yl)methoxy)ethanone]
103 | 102 | – | – | O=C(COCC1CCCN1S(=O)(=O)c1c(Cl)cccc1Cl)N1CCC(O)(c2ccc(Cl)c(C(F)(F)F)c2)CC1 (centres unmarked) [Example 218, 1-(4-(4-chloro-3-(trifluoromethyl)phenyl)-4-hydroxypiperidin-1-yl)-2-((1-(2,6-dichlorophenylsulfonyl)pyrrolidin-2-yl)methoxy)ethanone]
102 | 101 | – | – | O=C(COCC1CCCN1S(=O)(=O)c1c(Cl)cccc1Cl)N1CCC(O)(c2ccc(Br)cc2)CC1 (centres unmarked) [Example 219, 1-(4-(4-bromophenyl)-4-hydroxypiperidin-1-yl)-2-((1-(2,6-dichlorophenylsulfonyl)pyrrolidin-2-yl)methoxy)ethanone]
99 | 102 | – | – | O=C(COCC1CCCN1S(=O)(=O)c1c(Cl)cccc1Cl)N1CCC(O)(c2ccccc2)CC1 (centres unmarked) [Example 220, 2-((1-(2,6-dichlorophenylsulfonyl)pyrrolidin-2-yl)methoxy)-1-(4-hydroxy-4-phenylpiperidin-1-yl)ethanone]
23.5 | 89.5 | – | – | O=C(COCC1CCCN1S(=O)(=O)c1c(Cl)cccc1Cl)N1CCC(O)(Cc2ccccc2)CC1 (centres unmarked) [Example 221, 1-(4-benzyl-4-hydroxypiperidin-1-yl)-2-((1-(2,6-dichlorophenylsulfonyl)pyrrolidin-2-yl)methoxy)ethanone]
102 | 103 | – | – | O=C(COCC1CCCN1S(=O)(=O)c1c(Cl)cccc1Cl)N1CCC(O)(c2cccc(C(F)(F)F)c2)CC1 (centres unmarked) [Example 222, 2-((1-(2,6-dichlorophenylsulfonyl)pyrrolidin-2-yl)methoxy)-1-(4-hydroxy-4-(3-(trifluoromethyl)phenyl)piperidin-1-yl)ethanone]
15.1 | 99.5 | – | – | O=C(COCC1CCCN1S(=O)(=O)c1cc(Cl)sc1Cl)N1CCC(O)(c2ccc(Cl)c(C(F)(F)F)c2)CC1 (centres unmarked) [Example 223, 1-(4-(4-chloro-3-(trifluoromethyl)phenyl)-4-hydroxypiperidin-1-yl)-2-((1-(2,5-dichlorothiophen-3-ylsulfonyl)pyrrolidin-2-yl)methoxy)ethanone]
49.1 | 102 | – | – | O=C(COCC1CCCN1S(=O)(=O)c1cc(Cl)sc1Cl)N1CCC(O)(c2ccc(Br)cc2)CC1 (centres unmarked) [Example 224, 1-(4-(4-bromophenyl)-4-hydroxypiperidin-1-yl)-2-((1-(2,5-dichlorothiophen-3-ylsulfonyl)pyrrolidin-2-yl)methoxy)ethanone]
43.1 | 88.5 | – | – | O=C(COCC1CCCN1S(=O)(=O)c1cc(Cl)sc1Cl)N1CCC(O)(c2ccccc2)CC1 (centres unmarked) [Example 225, 2-((1-(2,5-dichlorothiophen-3-ylsulfonyl)pyrrolidin-2-yl)methoxy)-1-(4-hydroxy-4-phenylpiperidin-1-yl)ethanone]
13 | 72.4 | – | – | O=C(COCC1CCCN1S(=O)(=O)c1cc(Cl)sc1Cl)N1CCC(O)(Cc2ccccc2)CC1 (centres unmarked) [Example 226, 1-(4-benzyl-4-hydroxypiperidin-1-yl)-2-((1-(2,5-dichlorothiophen-3-ylsulfonyl)pyrrolidin-2-yl)methoxy)ethanone]
7.61 | 80.9 | – | – | O=C(COCC1CCCN1S(=O)(=O)c1cc(Cl)sc1Cl)N1CCC(O)(c2cccc(C(F)(F)F)c2)CC1 (centres unmarked) [Example 227, 2-((1-(2,5-dichlorothiophen-3-ylsulfonyl)pyrrolidin-2-yl)methoxy)-1-(4-hydroxy-4-(3-(trifluoromethyl)phenyl)piperidin-1-yl)ethanone]
95 | 101 | – | – | COc1cc(C)c(S(=O)(=O)N2CCC(COCC(=O)N3CCC(O)(c4ccc(Cl)c(C(F)(F)F)c4)CC3)C2)c(C)c1 (centres unmarked) [Example 228, 1-(4-(4-chloro-3-(trifluoromethyl)phenyl)-4-hydroxypiperidin-1-yl)-2-((1-(4-methoxy-2,6-dimethylphenylsulfonyl)pyrrolidin-3-yl)methoxy)ethanone]
65.5 | 100 | – | – | O=C(COCC1CCCCN1S(=O)(=O)c1cc(Cl)sc1Cl)N1CCC(O)(c2cccnc2)CC1 (centres unmarked) [Example 229, 2-((1-(2,5-dichlorothiophen-3-ylsulfonyl)piperidin-2-yl)methoxy)-1-(4-hydroxy-4-(pyridin-3-yl)piperidin-1-yl)ethanone]
100 | 100 | – | – | COc1cc(C)c(S(=O)(=O)N2CCC(COCC(=O)N3CCC(O)(c4ccc(Br)cc4)CC3)C2)c(C)c1 (centres unmarked) [Example 230, 1-(4-(4-bromophenyl)-4-hydroxypiperidin-1-yl)-2-((1-(4-methoxy-2,6-dimethylphenylsulfonyl)pyrrolidin-3-yl)methoxy)ethanone]
102 | 98.7 | – | – | COc1cc(C)c(S(=O)(=O)N2CCC(COCC(=O)N3CCC(O)(c4cccc(C(F)(F)F)c4)CC3)C2)c(C)c1 (centres unmarked) [Example 231, 1-(4-hydroxy-4-(3-(trifluoromethyl)phenyl)piperidin-1-yl)-2-((1-(4-methoxy-2,6-dimethylphenylsulfonyl)pyrrolidin-3-yl)methoxy)ethanone]
54.5 | 63.1 | – | – | COc1cc(C)c(S(=O)(=O)N2Cc3ccccc3CC2COCC(=O)N2CCC(O)(Cc3ccccc3)CC2)c(C)c1C (centres unmarked) [Example 232, 1-(4-benzyl-4-hydroxypiperidin-1-yl)-2-((2-(4-methoxy-2,3,6-trimethylphenylsulfonyl)-1,2,3,4-tetrahydroisoquinolin-3-yl)methoxy)ethanone]
38.9 | 70.2 | – | – | COc1cc(C)c(S(=O)(=O)N2Cc3ccccc3CC2COCC(=O)N2CCC(O)(c3cccc(C(F)(F)F)c3)CC2)c(C)c1C (centres unmarked) [Example 233, 1-(4-hydroxy-4-(3-(trifluoromethyl)phenyl)piperidin-1-yl)-2-((2-(4-methoxy-2,3,6-trimethylphenylsulfonyl)-1,2,3,4-tetrahydroisoquinolin-3-yl)methoxy)ethanone]
